Counter-ions that a name gives are not always drawn. Like-named read-outs stand apart in the source and are kept apart here.
Key:
[1] = Thermo-Gravimetric Analysis (TGA), thermal stability; type: physicochemical; details: 10° C./min ramp; for thermally stable up to (TGA): nitrogen
Experimental: TGA thermograms were obtained with a TA Instrument Discovery 550 in Al pans. The heating rate used was 10° C./min linear ramp from 25 to 400° C. with a nitrogen purging at a rate of 60 ml/min. TGA thermograms were analysed using TRIOS software.

[2] = Solubility assessments in four different media; type: physicochemical; details: for pH after addition of 1 ml media at 37° C. / Observation / pH after addition of 1.5 ml media at 37° C.: 250 mg per vial; for solubility relative to other salts: comparison of the salt forms
Experimental: Solubility assessments of 5-MeO-DMT oxalate, hydrobromide fumarate and benzoate were performed in four different media: […]

[3] = type: physicochemical; details: 40° C./75% RH, three days
Experimental: Salt screening studies with 24 selected counter-ions were performed to determine if 5-MeO-DMT free base is amenable to salt formation. […] Salts were examined by XRPD, TGA, DSC, 1H NMR and some by DVS analyses. Short term physical stability was examined by storage of salts at 40° C./75% RH for three days.
Physical stability stress tests were conducted on generated crystalline salts at controlled temperature and relative humidity. The powder samples were stored at 40° C./75% RH for three days. After this time samples were analysed by XRPD to see whether the physical state of salts changed during the storage.

[4] = Dissolution rate in simulated nasal fluid (UV-fiber optic dissolution apparatus); type: physicochemical; details: 5 mg in 5 mL simulated nasal fluid, 37° C., 150 RPM
Experimental: The dissolution rate was determined using a method comprising the use of a UV-fiber optic-based dissolution apparatus (one such suitable device is the Rainbow® Dynamic Dissolution Monitor by Pion Inc) and simulated nasal fluid. The simulated nasal fluid comprises 7.45 g/L NaCl, 1.29 g/L KCl, 0.32 g/L CaCl2×2H2O and deionised water.
The dissolution apparatus was set up with a 2 mm probe to measure the dissolution rate. 5 mg of the salt form was transferred into 5 mL of simulated nasal fluid, heated to a constant temperature of 37° C. and stirred at 150 RPM using a crossed stirrer bar. Measurements were taken at 3 s intervals for 130 intervals followed by 60 measurements taken at 10 s intervals for a total time of 16 minutes and 30 s. Detection of dissolution is by UV absorbance.

[5] = Dynamic Vapor Sorption (DVS) analysis of salts, with XRPD of the post-DVS sample; type: physicochemical
Experimental: XRPD diffractograms were acquired using Bruker D2 Phaser diffractometer equipped with LYNXEYE detector. Samples were prepared using a zero-background sample holder. The samples were scanned from 5 to 32° (2θ) using a step size of 0.02° and a time per step of 0.13 second whilst spinning the sample. Diffractograms were plotted using the EVA program from Bruker.
DVS analyses were performed on TA Instrument DVS Q5000. Samples were added to a pre-tared metallised quartz crucible and run at 25° C. from 40% RH to 90% RH, down to zero and back to 40%. This cycle was repeated in increments of 10% RH.

[6] = Oxalate salt solubility by HPLC; type: physicochemical; details: pH 1.2 medium, simulated gastric fluid, thermodynamic from solid, mother liquors adjusted to the desired pH, read-out: Solubility (mg/mL) of free base
Experimental: The benzoate salt has a solubility of, at least, 100 mg/ml. The calibration curve of the free base was prepared between 0.031-0.500 mg/ml and can be seen in FIG. 172.
Mother liquors were adjusted to the desired pH before HPLC quantification.

[7] = salt screen / scale-up batches, DVS at 25° C

## Br.COc1ccc2[nH]cc(CCN(C)C)c2c1 [Hydrobromide salt, 5-MeO-DMT hydrobromide]
[1]
  thermally stable up to (TGA): 220 °C
[2]; SNF
  pH after addition of 1 ml media at 37° C.: 8.13
[2]; SNF, 1 ml media at 37° C.
  Observation: Clear solution
[2]
  solubility relative to other salts: high solubility
[2]; pH 1.2 buffer
  pH after addition of 1 ml media at 37° C.: 8.09
[2]; pH 1.2 buffer, 1 ml media at 37° C.
  Observation: Clear solution
[2]; pH 4.5 buffer
  pH after addition of 1 ml media at 37° C.: 7.65
[2]; pH 4.5 buffer, 1 ml media at 37° C.
  Observation: Clear solution
[2]; pH 6.8 buffer
  pH after addition of 1 ml media at 37° C.: 7.82
[2]; pH 6.8 buffer, 1 ml media at 37° C.
  Observation: Clear solution
[3]
  crystalline form by XRPD after storage: No change in crystalline form
[4]
  dissolution rate: almost instantaneous
[5]; salt produced during scale-up
  solid form after DVS (XRPD post DVS): no change in crystalline form
[5]; [7]
  hygroscopicity classification: non-hygroscopic

## COc1ccc2[nH]cc(CCN(C)C)c2c1 [Oxalate salt, 5-MeO-DMT oxalate]
[2]; SNF
  pH after addition of 1.5 ml media at 37° C.: 2.13
[2]; SNF, 1.5 ml media at 37° C.
  Observation: Suspension
[2]
  solubility relative to other salts: lowest solubility
[2]; pH 1.2 buffer
  pH after addition of 1.5 ml media at 37° C.: 1.87
[2]; pH 1.2 buffer, 1.5 ml media at 37° C.
  Observation: Suspension
[2]; pH 4.5 buffer
  pH after addition of 1.5 ml media at 37° C.: 3.05
[2]; pH 4.5 buffer, 1.5 ml media at 37° C.
  Observation: Suspension
[2]; pH 6.8 buffer
  pH after addition of 1.5 ml media at 37° C.: 3.45
[2]; pH 6.8 buffer, 1.5 ml media at 37° C.
  Observation: Suspension
[4]
  dissolution rate: prolonged
[5]
  solid form after DVS (XRPD post DVS): no change in the crystalline form
[6]
  solubility: 19 mg/mL

## COc1ccc2[nH]cc(CCN(C)C)c2c1 [Tartrate salt, 5-MeO-DMT tartrate]
[1]
  onset of decomposition / mass loss (TGA): 175 °C
  thermally stable up to (TGA): around 170 °C
[3]
  crystalline form by XRPD after storage: No change in the crystalline form
[5]; 25° C
  total water (moisture) uptake between 0% RH and 90% RH: approximately 3.3 % w/w
[5]; DVS isotherm, 25° C
  sorption/desorption behaviour (reversibility, hysteresis): reversible and overlap
[5]; Example 3 Pattern 1 batches
  solid form after double-cycle DVS experiment (XRPD): unchanged
  total reversible mass change between 0-90% RH: 0.6 wt. %
[5]; Example 3 Pattern 1 batches, 0-90% RH
  hygroscopicity classification: slightly hygroscopic (Pharmaceuticals that pick up between 0.2% and 2.0% moisture at 80% RH are considered slightly hygroscopic)
[5]; [7]
  hygroscopicity classification: moderately hygroscopic (Pharmaceuticals that pick up between 2.0% and 15.0% moisture at 80% RH are considered moderately hygroscopic)
[5]; salt screen / scale-up batches, DVS at 25° C, listed as tartrate salt
  hygroscopicity classification: moderately hygroscopic (Pharmaceuticals that pick up between 2.0% and 15.0% moisture at 80% RH are considered moderately hygroscopic)
[5]; salt screen batches
  solid form after DVS (XRPD post DVS): did not undergo any solid form transformation
